PubChem BioAssay AID256 (DTP/NCI, 2004)
Values joined by “and” are separate entries in the source; they are usually repeats but may differ in a detail not shown here. Identical values can stand only once. Inconclusive results and toxic doses are left out.

Tested on: CD2F1 mice, L1210 leukemia ip, survival T/C
Assay: NCI In Vivo Anticancer Drug Screen. Data for tumor model L1210 Leukemia (intraperitoneal) in CD2F1 (CDF1) mice
Settings: higher = longer survival
Outline: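 Implant tumor; dose compound or vehicle; measure endpoint in both groups; report treated divided by control.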

[1] = endpoint: mean survival time, dose: 100.0 mg/kg/injection, schedule: Q01DX009 (ip), vehicle: saline with Tween-80
[2] = endpoint: mean survival time, dose: 100.0 mg/kg/injection, schedule: Q04DX003 (ip), vehicle: saline with Tween-80
[3] = endpoint: mean survival time, dose: 200.0 mg/kg/injection, schedule: Q01DX009 (ip), vehicle: saline with Tween-80
[4] = endpoint: mean survival time, dose: 200.0 mg/kg/injection, schedule: Q04DX003 (ip), vehicle: saline with Tween-80
[5] = endpoint: mean survival time, dose: 400.0 mg/kg/injection, schedule: Q04DX003 (ip), vehicle: saline with Tween-80
[6] = endpoint: mean survival time, dose: 100.0 mg/kg/injection, schedule: Q04DX003 (ip), vehicle: saline
[7] = endpoint: mean survival time, dose: 200.0 mg/kg/injection, schedule: Q04DX003 (ip), vehicle: saline
[8] = endpoint: mean survival time, dose: 400.0 mg/kg/injection, schedule: Q04DX003 (ip), vehicle: saline
[9] = endpoint: mean survival time, dose: 100.0 mg/kg/injection, schedule: Q01DX009 (ip), vehicle: saline
[10] = endpoint: mean survival time, dose: 200.0 mg/kg/injection, schedule: Q01DX009 (ip), vehicle: saline
[11] = endpoint: mean survival time, dose: 400.0 mg/kg/injection, schedule: Q01DX009 (ip), vehicle: saline
[12] = endpoint: mean survival time, dose: 25.0 mg/kg/injection, schedule: Q01DX009 (ip), vehicle: saline with Tween-80
[13] = endpoint: mean survival time, dose: 50.0 mg/kg/injection, schedule: Q01DX009 (ip), vehicle: saline with Tween-80
[14] = endpoint: mean survival time, dose: 25.0 mg/kg/injection, schedule: Q01DX009 (ip), vehicle: Klucel (hydroxypropylcellulose) (HPC)
[15] = endpoint: mean survival time, dose: 50.0 mg/kg/injection, schedule: Q01DX009 (ip), vehicle: Klucel (hydroxypropylcellulose) (HPC)

O=C(c1ccc(-c2ccccc2)cc1)c1no[n+]([O-])c1C(=O)c1ccc(-c2ccccc2)cc1
T/C [1]: 96 % of control | T/C [2]: 86 % of control | T/C [3]: 93 % of control | T/C [4]: 98 % of control | T/C [5]: 88 % of control

COc1cc(C)ccc1Cl
T/C [1]: 101 % of control | T/C [3]: 118 % of control

OCCC1CC1=C1CC1 (configuration not stated)
T/C (endpoint: mean survival time, dose: 100.0 mg/kg/injection, schedule: Q04DX003 (ip), vehicle: Klucel (hydroxypropylcellulose) (HPC)): 101 % of control | T/C (endpoint: mean survival time, dose: 200.0 mg/kg/injection, schedule: Q04DX003 (ip), vehicle: Klucel (hydroxypropylcellulose) (HPC)): 101 % of control

CCSC(=N)N
T/C [6]: 94 % of control | T/C [7]: 91 % of control | T/C [8]: 97 % of control

S=C1CCCCN1
T/C (endpoint: median survival time, dose: 25.0 mg/kg/injection, schedule: Q01DX009 (ip), vehicle: distilled water + alcohol): 96 % of control | T/C (endpoint: median survival time, dose: 50.0 mg/kg/injection, schedule: Q01DX009 (ip), vehicle: distilled water + alcohol): 94 % of control | T/C (endpoint: median survival time, dose: 100.0 mg/kg/injection, schedule: Q01DX009 (ip), vehicle: distilled water + alcohol): 106 % of control | T/C (endpoint: median survival time, dose: 200.0 mg/kg/injection, schedule: Q01DX009 (ip), vehicle: distilled water + alcohol): 112 % of control

COC(=O)C/C(=C/C=C1/C(=O)ON=C1C)c1c(C)[nH]oc1=O
T/C [9]: 87 % of control | T/C [6]: 101 % of control | T/C [10]: 92 % of control | T/C [7]: 106 % of control | T/C [11]: 87 % of control | T/C [8]: 108 % of control

Oc1ccccc1C1=CCCCCC1
T/C [6]: 95 % of control | T/C [7]: 101 % of control | T/C [8]: 104 % of control

COC(=O)c1ccc(OC)c(I)c1
T/C (endpoint: mean survival time, dose: 100.0 mg/kg/injection, schedule: Q04DX002 (ip), vehicle: saline with Tween-80): 98 % of control | T/C (endpoint: mean survival time, dose: 200.0 mg/kg/injection, schedule: Q04DX002 (ip), vehicle: saline with Tween-80): 123 % of control | T/C (endpoint: mean survival time, dose: 400.0 mg/kg/injection, schedule: Q04DX002 (ip), vehicle: saline with Tween-80): 98 % of control

Cc1ccnc(N)c1.[Cl-].[Cl-].[Cl-].[Cl-].[Pt+2]
T/C (endpoint: mean survival time, dose: 25.0 mg/kg/injection, schedule: Q04DX003 (ip), vehicle: saline with Tween-80): 106 % of control | T/C (endpoint: mean survival time, dose: 50.0 mg/kg/injection, schedule: Q04DX003 (ip), vehicle: saline with Tween-80): 101 % of control

CC[N+](C)(CC)Cc1cc(C(C)=O)c(C)o1
T/C (endpoint: mean survival time, dose: 6.25 mg/kg/injection, schedule: Q04DX002 (ip), vehicle: saline): 98 % of control | T/C (endpoint: mean survival time, dose: 12.5 mg/kg/injection, schedule: Q04DX002 (ip), vehicle: saline): 98 % of control | T/C (endpoint: mean survival time, dose: 25.0 mg/kg/injection, schedule: Q04DX002 (ip), vehicle: saline): 102 % of control | T/C (endpoint: mean survival time, dose: 50.0 mg/kg/injection, schedule: Q04DX002 (ip), vehicle: saline): 91 % of control | T/C (endpoint: median survival time, dose: 50.0 mg/kg/injection, schedule: Q04DX002 (ip), vehicle: saline): 100 % of control

CNC(=O)Oc1ccc(S(=O)(=O)c2ccc(OC(=O)NC)cc2)cc1
T/C (endpoint: median survival time, dose: 12.5 mg/kg/injection, schedule: Q01DX009 (ip), vehicle: saline with Tween-80): 103 % of control | T/C (endpoint: median survival time, dose: 25.0 mg/kg/injection, schedule: Q01DX009 (ip), vehicle: saline with Tween-80): 115 % of control and 112 % of control | T/C (endpoint: median survival time, dose: 43.0 mg/kg/injection, schedule: Q01DX005 (ip), vehicle: saline with Tween-80): 113 % of control | T/C (endpoint: median survival time, dose: 43.0 mg/kg/injection, schedule: Q01DX009 (ip), vehicle: saline with Tween-80): 102 % of control | T/C (endpoint: median survival time, dose: 50.0 mg/kg/injection, schedule: Q01DX009 (ip), vehicle: saline with Tween-80): 120 % of control | T/C (endpoint: median survival time, dose: 72.0 mg/kg/injection, schedule: Q01DX005 (ip), vehicle: saline with Tween-80): 108 % of control and 109 % of control | T/C (endpoint: median survival time, dose: 72.0 mg/kg/injection, schedule: Q01DX009 (ip), vehicle: saline with Tween-80): 101 % of control | T/C (endpoint: median survival time, dose: 100.0 mg/kg/injection, schedule: Q01DX009 (ip), vehicle: saline with Tween-80): 122 % of control | T/C (endpoint: median survival time, dose: 120.0 mg/kg/injection, schedule: Q01DX005 (ip), vehicle: saline with Tween-80): 109 % of control and 112 % of control | T/C (endpoint: median survival time, dose: 120.0 mg/kg/injection, schedule: Q01DX009 (ip), vehicle: saline with Tween-80): 106 % of control | T/C (endpoint: median survival time, dose: 200.0 mg/kg/injection, schedule: Q01DX005 (ip), vehicle: saline with Tween-80): 104 % of control and 109 % of control | T/C (endpoint: median survival time, dose: 200.0 mg/kg/injection, schedule: Q01DX009 (ip), vehicle: saline with Tween-80): 151 % of control | T/C (endpoint: median survival time, dose: 333.0 mg/kg/injection, schedule: Q01DX005 (ip), vehicle: saline with Tween-80): 109 % of control

NC(=O)CCl
T/C [6]: 110 % of control

CCCCCCCCCCCCCC#CC(=O)O
T/C (endpoint: mean survival time, dose: 3.12 mg/kg/injection, schedule: Q01DX009 (ip), vehicle: saline with Tween-80): 101 % of control and 109 % of control | T/C (endpoint: mean survival time, dose: 6.25 mg/kg/injection, schedule: Q01DX009 (ip), vehicle: saline with Tween-80): 96 % of control and 98 % of control | T/C (endpoint: mean survival time, dose: 12.5 mg/kg/injection, schedule: Q01DX009 (ip), vehicle: saline with Tween-80): 91 % of control and 98 % of control | T/C [12]: 91 % of control and 98 % of control | T/C [13]: 91 % of control and 95 % of control | T/C [1]: 88 % of control

CN/N=C1\CCC2C3CCc4cc(O)ccc4C3CCC12C (configuration not stated)
T/C [14]: 102 % of control | T/C [15]: 103 % of control

O=C(COc1ccc(Cl)c(Cl)c1)Nc1ccc(C(=O)CCl)cc1
T/C [2]: 100 % of control | T/C [4]: 97 % of control | T/C [5]: 114 % of control

O=[N+]([O-])c1ccc(/C=C/C=C/C2(CCl)OCCO2)cc1
T/C (endpoint: mean survival time, dose: 100.0 mg/kg/injection, schedule: Q01DX001 (ip), vehicle: Klucel (hydroxypropylcellulose) (HPC)): 100 % of control | T/C (endpoint: mean survival time, dose: 200.0 mg/kg/injection, schedule: Q01DX001 (ip), vehicle: Klucel (hydroxypropylcellulose) (HPC)): 112 % of control | T/C (endpoint: mean survival time, dose: 400.0 mg/kg/injection, schedule: Q01DX001 (ip), vehicle: Klucel (hydroxypropylcellulose) (HPC)): 100 % of control

COC(/C=C\C(OC)OC)OC
T/C (endpoint: mean survival time, dose: 12.5 mg/kg/injection, schedule: Q01DX009 (ip), vehicle: saline): 101 % of control | T/C (endpoint: mean survival time, dose: 25.0 mg/kg/injection, schedule: Q01DX009 (ip), vehicle: saline): 96 % of control

CC(=O)OC1(C)CC(C)(C)N=N1 (configuration not stated)
T/C [14]: 97 % of control | T/C [15]: 99 % of control | T/C (endpoint: mean survival time, dose: 100.0 mg/kg/injection, schedule: Q01DX009 (ip), vehicle: Klucel (hydroxypropylcellulose) (HPC)): 97 % of control | T/C (endpoint: mean survival time, dose: 200.0 mg/kg/injection, schedule: Q01DX009 (ip), vehicle: Klucel (hydroxypropylcellulose) (HPC)): 97 % of control | T/C (endpoint: mean survival time, dose: 400.0 mg/kg/injection, schedule: Q01DX009 (ip), vehicle: Klucel (hydroxypropylcellulose) (HPC)): 97 % of control

O=[N+]([O-])c1ccc2c(N=Nc3c(O)ccc4ccccc34)c(O)cc(S(=O)(=O)O)c2c1
T/C (endpoint: mean survival time, dose: 50.0 mg/kg/injection, schedule: Q01DX009 (ip), vehicle: saline): 119 % of control | T/C [9]: 100 % of control | T/C [10]: 109 % of control

CCc1ccc(NN=Nc2ccccc2C#N)cc1
T/C [2]: 95 % of control | T/C [4]: 95 % of control | T/C [5]: 98 % of control

O=S(=O)(/C=C(/Br)c1ccccc1)c1ccccc1
T/C [9]: 96 % of control | T/C [6]: 100 % of control | T/C [10]: 91 % of control | T/C [7]: 100 % of control | T/C [11]: 90 % of control | T/C [8]: 100 % of control

CS(=O)(=O)OCCCN(CCCOS(C)(=O)=O)c1ccc(C=Nc2ccc(-c3csc(COc4ccc(Br)cc4)n3)cc2)cc1
T/C (endpoint: mean survival time, dose: 100.0 mg/kg/injection, schedule: Q01DX001 (ip), vehicle: saline with Tween-80): 94 % of control | T/C (endpoint: mean survival time, dose: 200.0 mg/kg/injection, schedule: Q01DX001 (ip), vehicle: saline with Tween-80): 89 % of control | T/C (endpoint: mean survival time, dose: 400.0 mg/kg/injection, schedule: Q01DX001 (ip), vehicle: saline with Tween-80): 88 % of control

C=CCNC(=O)/C=C/C(=O)NCC=C
T/C [12]: 97 % of control | T/C [13]: 97 % of control | T/C [1]: 101 % of control | T/C [2]: 97 % of control

Cc1cc(Cc2ccccc2)c(O)c(Cc2ccccc2)c1
T/C (endpoint: mean survival time, dose: 100.0 mg/kg/injection, schedule: Q04DX003 (ip), vehicle: other): 96 % of control | T/C (endpoint: mean survival time, dose: 200.0 mg/kg/injection, schedule: Q04DX003 (ip), vehicle: other): 102 % of control | T/C (endpoint: mean survival time, dose: 400.0 mg/kg/injection, schedule: Q04DX003 (ip), vehicle: other): 94 % of control
